The test system of the assay is HIV-1 (IIIB) in MT-4 cells. As to the kind of experiment: microbe, parasite or virus in culture. The class given is cell-based. On the procedure: Compounds were serially diluted (1:3) in DMSO on 384-well polypropylene plates and further diluted 200-fold into complete RPMI media (10% FBS, 1% P/S) using the Biotek Micro Flow and Agilent ECHO acoustic dispenser. Each plate contained up to 8 test compounds, with negative (No Drug Control) and 5 uM AZT positive controls. MT-4 cells were pre-infected with 10 uL of either RPMI (mock-infected) or a fresh 1:250 dilution of an HIV-1 (IIIB) concentrated virus stock. Infected and uninfected MT-4 cells were further diluted in complete RPMI media and added to each plate using a Micro Flow dispenser. After 5 days incubation in a humidified and temperature controlled incubator (37° C.), Cell Titer Glo (Promega) was added to the assay plates to quantify the amount of luciferase.

Setting [1] is: Human immunodeficiency virus 1, IIIB, MT4, MT-4 cells, HIV-1, read-out: MT4 EC50.
Setting [2] is: Human immunodeficiency virus 1, IIIB, MT4, read-out: MT4 EC50 (nM).

Read-outs that look alike come from different tables or passages of the source.

One may read the EC50 as the concentration at which the effect is half-maximal. For the molecule `CC(C)(C)C[C@]1(c2ccc(-c3ncccn3)cc2F)NC(=N)N([C@H](COC(=O)NC2(C(F)(F)F)CC2)c2ccc(Cl)c(-c3ncn[nH]3)c2)C1=O` [Compound 112], the EC50 under setting [1] was found to be 40.4 nM.

As to `CC(C)(C)C[C@]1(c2ccc(-c3cnn(C(F)F)c3)cc2F)NC(=N)N([C@H](COC(=O)NC(C)(C)C)c2ccc(Cl)c(-c3ncn[nH]3)c2)C1=O` [Compound 114], the EC50 under setting [1] was 40.6 nM.

For `CC(C)(C)C[C@]1(c2ccc(-c3cnn(C(F)F)c3)cc2)NC(=N)N([C@H](COC(=O)NC(C)(C)C(F)(F)F)c2ccc(Cl)c(-c3ncnn3C(F)F)c2)C1=O` [Compound 115], under setting [1], the 50% effective concentration (EC50) turned out to be 11.7 nM.

On to `CC(C)(C)C[C@]1(c2ccc(-c3ccccn3)cc2F)NC(=N)N([C@H](COC(=O)NC2(C(F)(F)F)CC2)c2ccc(Cl)c(-c3ncn[nH]3)c2)C1=O` [Compound 116], for which the EC50 under setting [1] was determined as 42.6 nM.

Regarding `CC(C)(C)C[C@]1(c2ccc(-c3ncccn3)cc2)NC(=N)N([C@H](COC(=O)NC2(C(F)(F)F)CC2)c2ccc(Cl)c(-c3ncnn3C(F)F)c2)C1=O` [Compound 117], under setting [1], the EC50 was found to be 6.81 nM.

On to `CC(C)(C)C[C@]1(c2ccc(-c3cnc(C#N)nc3)cc2)NC(=N)N([C@H](COC(=O)NC2(C(F)(F)F)CC2)c2ccc(Cl)c(-c3ncnn3C(F)F)c2)C1=O` [Compound 118], for which the concentration for a half-maximal effect (EC50) under setting [1] was found to be 16.4 nM.

For `CC(C)(C)C[C@]1(c2ccc(-c3cnsc3)cc2)NC(=N)N([C@H](COC(=O)NC2(C(F)(F)F)CC2)c2ccc(Cl)c(-c3ncnn3C(F)F)c2)C1=O` [Compound 119], the EC50 under setting [1] was 10.3 nM.

As to `CC(C)(C)C[C@]1(c2ccc(-c3ccn4ccnc4c3)cc2)NC(=N)N([C@H](COC(=O)NC2(C(F)(F)F)CC2)c2ccc(Cl)c(-c3ncnn3C(F)F)c2)C1=O` [Compound 120], under setting [1], the EC50 was found to be 27.8 nM.

`CC(C)(C)C[C@]1(c2ccc(-c3cnc4ccccn34)cc2)NC(=N)N([C@H](COC(=O)NC2(C(F)(F)F)CC2)c2ccc(Cl)c(-c3ncnn3C(F)F)c2)C1=O` [Compound 121]: under setting [1], the half-maximal effective concentration (EC50) was found to be 21 nM.

For the molecule `CC(C)(C)C[C@]1(c2ccc(-c3cnc(C(F)(F)F)nc3)cc2)NC(=N)N([C@H](COC(=O)NC2(C(F)(F)F)CC2)c2ccc(Cl)c(-c3ncnn3C(F)F)c2)C1=O` [Compound 122], the EC50 under setting [1] came out at 25.4 nM.

As to `CC(C)(C)C[C@]1(c2ccc(-c3cnn(C(F)F)c3)cc2)NC(=N)N([C@H](COC(=O)NC2(C(F)(F)F)CC2)c2ccc(F)c(-c3ncnn3C(F)F)c2)C1=O` [Compound 123], under setting [1], the 50% effective concentration (EC50) was 28.1 nM.

For the molecule `CC(C)(C)C[C@H]1C(=O)N([C@H](COC(=O)NC(C)(C)C(F)F)c2ccc(F)c(-c3ncnn3C(F)F)c2)C(=N)N1c1ccc(-c2cnn(C(F)F)c2)cc1` [Compound 124], the concentration for a half-maximal effect (EC50) (MT-4 cells, HIV-1, read-out: MT4 EC50) amounted to 65.3 nM.

In the case of `CC(C)(C)C[C@]1(c2ccc(-c3ncccn3)cc2)NC(=N)N([C@H](COC(=O)NC(C)(C)C(F)F)c2ccc(Cl)c(-c3ncnn3C(F)F)c2)C1=O` [Compound 125], under setting [1], the half-maximal effective concentration (EC50) was determined as 12 nM.

Consider `CC(C)(F)C[C@]1(c2ccc(Br)cc2)NC(=N)N([C@H](COC(=O)NC(C)(C)C(F)F)c2ccc(Cl)c(-c3ncnn3C(F)F)c2)C1=O` [Compound 126], for which the EC50 under setting [1] was 242 nM.

For the molecule `CC(C)(F)C[C@]1(c2ccc(-c3ncccn3)cc2)NC(=N)N([C@H](COC(=O)NC(C)(C)C(F)F)c2ccc(Cl)c(-c3ncnn3C(F)F)c2)C1=O` [Compound 127], the concentration for a half-maximal effect (EC50) under setting [1] came out at 27.5 nM.

Consider `Cn1ncnc1-c1cc([C@@H](COC(=O)NC(C)(C)C(F)F)N2C(=N)N[C@](CC(C)(C)F)(c3ccc(-c4cnn(C(F)F)c4)cc3)C2=O)ccc1Cl` [Compound 128], for which the half-maximal effective concentration (EC50) under setting [1] came out at 85 nM.

With `Cn1ncnc1-c1cc([C@@H](COC(=O)NC(C)(C)C(F)F)N2C(=N)N[C@](CC(C)(C)C(F)(F)F)(c3ccc(-c4cnn(C(F)F)c4)cc3)C2=O)ccc1Cl` [Compound 130], the EC50 under setting [1] was determined as 18.7 nM.

`CC(C)(F)C[C@]1(c2ccc(-c3ncccn3)cc2F)NC(=N)N([C@H](COC(=O)NC(C)(C)C(F)F)c2ccc(Cl)c(-c3ncnn3C(F)F)c2)C1=O` [Compound 132]: the EC50 under setting [1] came to 48 nM.

Turning to `CC(C)(F)C[C@]1(c2ccc(-c3cnn(C4CC4)c3)cc2F)NC(=N)N([C@H](COC(=O)NC(C)(C)C(F)F)c2ccc(Cl)c(-c3ncnn3C(F)F)c2)C1=O` [Compound 133], the EC50 under setting [1] is 35.1 nM.

With `CC(C)(C)C[C@]1(c2ccc(-c3cnn(C4CC4)c3)c(F)c2F)NC(=N)N([C@H](COC(=O)NC2(C(F)(F)F)CC2)c2ccc(Cl)c(-c3ncnn3C(F)F)c2)C1=O` [Compound 136], under setting [1], the concentration for a half-maximal effect (EC50) is 7.91 nM.

Take `CC(C)(C)C[C@]1(c2ccc(-c3cn(C4CC4)nn3)cc2)NC(=N)N([C@H](COC(=O)NC2(C(F)(F)F)CC2)c2ccc(Cl)c(-c3ncnn3C(F)F)c2)C1=O` [Compound 137]: the concentration giving a half-maximal response (EC50) under setting [1] was 19.5 nM.

Turning to `CC(C)(C)C[C@]1(c2ccc(-n3cc(F)cn3)cc2)NC(=N)N([C@H](COC(=O)NC2(C(F)(F)F)CC2)c2ccc(Cl)c(-c3ncnn3C(F)F)c2)C1=O` [Compound 138], under setting [1], the EC50 was 11.5 nM.

Take `CC1(C[C@]2(c3ccc(-c4cnn(C5CC5)c4)cc3)NC(=N)N([C@H](COC(=O)NC3(C(F)(F)F)CC3)c3ccc(Cl)c(-c4ncnn4C(F)F)c3)C2=O)CC1` [Compound 139]: under setting [1], the EC50 stood at 28.1 nM.

With `CC(C)(C)C[C@]1(c2ccc(-c3cnn(C(F)F)c3)cc2)NC(=N)N([C@H](COC(=O)NC2(C(F)(F)F)CC2)c2ccc(C#N)c(-c3ncnn3C(F)F)c2)C1=O` [Compound 140], the EC50 under setting [1] turned out to be 266 nM.

Take `CC(C)(C)C[C@]1(c2ccc(-c3cnn(C(F)F)c3)cc2)NC(=N)N([C@H](COC(=O)NC2(C(F)(F)F)CC2)c2ccc(C(N)=O)c(-c3ncnn3C(F)F)c2)C1=O` [Compound 141]: the half-maximal effective concentration (EC50) under setting [1] was found to be 1020 nM.

Consider `CC(C)(C)C[C@]1(c2ccc(-c3ncn(C4CC4)n3)cc2F)NC(=N)N([C@H](COC(=O)NC2(C(F)(F)F)CC2)c2ccc(Cl)c(-c3ncnn3C(F)F)c2)C1=O` [Compound 142], for which the 50% effective concentration (EC50) under setting [1] was 10.1 nM.

Regarding `CC(C)(C)C[C@]1(c2ccc(-c3cnn(C4CC4)n3)cc2F)NC(=N)N([C@H](COC(=O)NC2(C(F)(F)F)CC2)c2ccc(Cl)c(-c3ncnn3C(F)F)c2)C1=O` [Compound 143], under setting [1], the EC50 stood at 9.59 nM.

Turning to `CC(C)(C)C[C@]1(c2ccc(-c3cnn(C4CC4)c3)c(F)c2)NC(=N)N([C@H](COC(=O)NC2(C(F)(F)F)CC2)c2ccc(Cl)c(-c3ncnn3C(F)F)c2)C1=O` [Compound 144], the concentration for a half-maximal effect (EC50) under setting [1] worked out at 7.92 nM.

For `CC(C)(Cl)C[C@]1(c2ccc(-c3cnn(C(F)F)c3)cc2)NC(=N)N([C@H](COC(=O)NC2(C(F)(F)F)CC2)c2ccc(Cl)c(-c3ncnn3C(F)F)c2)C1=O` [Compound 145], under setting [1], the concentration for a half-maximal effect (EC50) is 228 nM.

On to `C[C@H](NC(=O)OC[C@H](c1ccc(Cl)c(-c2ncnn2C(F)F)c1)N1C(=N)N[C@](CC(C)(C)C)(c2ccc(-c3cnn(C4CC4)n3)cc2)C1=O)C(F)(F)F` [Compound 147], for which the half-maximal effective concentration (EC50) under setting [1] was determined as 7.93 nM.

Turning to `C[C@H](NC(=O)OC[C@H](c1ccc(Cl)c(-c2ncnn2C(F)F)c1)N1C(=N)N[C@](CC(C)(C)C)(c2ccc(-c3cn(C45CC(C4)C5)nn3)c(F)c2)C1=O)C(F)(F)F` [Compound 148], the EC50 under setting [1] was 13.8 nM.

Take `CC(C)(C[C@]1(c2ccc(-c3cnn(C4CC4)n3)cc2)NC(=N)N([C@H](COC(=O)NC2(C(F)(F)F)CC2)c2ccc(Cl)c(-c3ncnn3C(F)F)c2)C1=O)C1CC1` [Compound 149]: the EC50 under setting [1] turned out to be 11.9 nM.

Turning to `C[C@H](NC(=O)OC[C@H](c1ccc(Cl)c(-c2ncnn2C(F)F)c1)N1C(=N)N[C@](CC(C)(C)C2CC2)(c2ccc(-c3cnn(C4CC4)n3)cc2)C1=O)C(F)(F)F` [Compound 150], under setting [1], the concentration for a half-maximal effect (EC50) was found to be 9.92 nM.

On to `CC(C)(C)C[C@]1(c2ccc(-c3cnn(CC(F)F)n3)cc2F)NC(=N)N([C@H](COC(=O)NC2(C(F)(F)F)CC2)c2ccc(Cl)c(-c3ncnn3C(F)F)c2)C1=O` [Compound 151], for which, under setting [1], the EC50 amounted to 7.55 nM.

Regarding `CC(C)(C[C@]1(c2ccc(-c3cnn(C4CC4)n3)cc2)NC(=N)N([C@H](COC(=O)NCC(F)(F)F)c2ccc(Cl)c(-c3ncnn3C(F)F)c2)C1=O)C(F)(F)F` [Compound 156], under setting [2], the EC50 was 11.1 nM.

As for `CC1(NC(=O)OC[C@H](c2ccc(Cl)c(-c3ncnn3C(F)F)c2)N2C(=N)N[C@](CC(C)(C)C(F)(F)F)(c3ccc(-c4cnn(C5CC5)n4)cc3)C2=O)CC1` [Compound 157], the half-maximal effective concentration (EC50) under setting [1] worked out at 7.64 nM.

As to `CC(C)(C[C@]1(c2ccc(-c3cnn(C4CC4)n3)cc2)NC(=N)N([C@H](COC(=O)NC2(C(F)(F)F)CC2)c2ccc(Cl)c(-c3ncnn3C3CC3)c2)C1=O)C(F)(F)F` [Compound 159], the EC50 under setting [1] came to 10.9 nM.

Regarding `C[C@H](C(=O)NC[C@H](c1ccc(Cl)c(-c2ncnn2C(F)F)c1)N1C(=N)N[C@](CC(C)(C)C(F)(F)F)(c2ccc(-c3cnn(C4CC4)n3)cc2)C1=O)C(F)(F)F` [Compound 161], under setting [1], the EC50 turned out to be 14.3 nM.

Regarding `C[C@@H](C(=O)NC[C@H](c1ccc(Cl)c(-c2ncnn2C(F)F)c1)N1C(=N)N[C@](CC(C)(C)C(F)(F)F)(c2ccc(-c3cnn(C4CC4)n3)cc2)C1=O)C(F)(F)F` [Compound 162], the EC50 under setting [1] came to 21 nM.

On to `CC(C)(C)C[C@]1(c2ccc(-c3cnn(C(F)F)c3)cc2)NC(=N)N([C@H](COC(=O)NC2(C)CC2)c2ccc(Cl)c(-n3ncnc3C(F)F)c2)C1=O` [Compound 178], for which the EC50 under setting [1] is 9.99 nM.

Consider `CC(C)(C)C[C@]1(c2ccc(-c3cnn(C(F)F)c3)cc2)NC(=N)N([C@H](COC(=O)Nc2ccccc2)c2ccc(Cl)c(-n3ncnc3C(F)F)c2)C1=O` [Compound 180], for which, under setting [2], the EC50 was found to be 23.7 nM.

Turning to `CC(C)(C)C[C@]1(c2ccc(-c3cnn(C(F)F)c3)cc2)NC(=N)N([C@H](COC(=O)Nc2ccccn2)c2ccc(Cl)c(-n3ncnc3C(F)F)c2)C1=O` [Compound 181], the 50% effective concentration (EC50) under setting [1] worked out at 29 nM.

The record behind these values is patent US10774053B2, “HIV protease inhibitors” (Gilead Sciences, Inc., priority 2017, dated 2020).
